Where two headings read alike, the source gives them in different places.
Assays:
[1] = biological target: cysteine adenylation domain of HMWP2 (residues 1–1491) (Yersinia pestis, UniProt A0A2S9PH42); type: biochemical
[2] = system: Escherichia coli, Bacillus subtilis, Mycobacterium smegmatis; conditions: cited from earlier work
[3] = system: aminoacyl-tRNA synthetases; type: biochemical, rabbit
Y. pestis [4] = type: cell-based, Yersinia pestis
Y. pestis [5] = conditions: cited from earlier work

cysteine adenylation domain of HMWP2 (residues 1–1491), sequence (A0A2S9PH42 1-1491 limits assumed): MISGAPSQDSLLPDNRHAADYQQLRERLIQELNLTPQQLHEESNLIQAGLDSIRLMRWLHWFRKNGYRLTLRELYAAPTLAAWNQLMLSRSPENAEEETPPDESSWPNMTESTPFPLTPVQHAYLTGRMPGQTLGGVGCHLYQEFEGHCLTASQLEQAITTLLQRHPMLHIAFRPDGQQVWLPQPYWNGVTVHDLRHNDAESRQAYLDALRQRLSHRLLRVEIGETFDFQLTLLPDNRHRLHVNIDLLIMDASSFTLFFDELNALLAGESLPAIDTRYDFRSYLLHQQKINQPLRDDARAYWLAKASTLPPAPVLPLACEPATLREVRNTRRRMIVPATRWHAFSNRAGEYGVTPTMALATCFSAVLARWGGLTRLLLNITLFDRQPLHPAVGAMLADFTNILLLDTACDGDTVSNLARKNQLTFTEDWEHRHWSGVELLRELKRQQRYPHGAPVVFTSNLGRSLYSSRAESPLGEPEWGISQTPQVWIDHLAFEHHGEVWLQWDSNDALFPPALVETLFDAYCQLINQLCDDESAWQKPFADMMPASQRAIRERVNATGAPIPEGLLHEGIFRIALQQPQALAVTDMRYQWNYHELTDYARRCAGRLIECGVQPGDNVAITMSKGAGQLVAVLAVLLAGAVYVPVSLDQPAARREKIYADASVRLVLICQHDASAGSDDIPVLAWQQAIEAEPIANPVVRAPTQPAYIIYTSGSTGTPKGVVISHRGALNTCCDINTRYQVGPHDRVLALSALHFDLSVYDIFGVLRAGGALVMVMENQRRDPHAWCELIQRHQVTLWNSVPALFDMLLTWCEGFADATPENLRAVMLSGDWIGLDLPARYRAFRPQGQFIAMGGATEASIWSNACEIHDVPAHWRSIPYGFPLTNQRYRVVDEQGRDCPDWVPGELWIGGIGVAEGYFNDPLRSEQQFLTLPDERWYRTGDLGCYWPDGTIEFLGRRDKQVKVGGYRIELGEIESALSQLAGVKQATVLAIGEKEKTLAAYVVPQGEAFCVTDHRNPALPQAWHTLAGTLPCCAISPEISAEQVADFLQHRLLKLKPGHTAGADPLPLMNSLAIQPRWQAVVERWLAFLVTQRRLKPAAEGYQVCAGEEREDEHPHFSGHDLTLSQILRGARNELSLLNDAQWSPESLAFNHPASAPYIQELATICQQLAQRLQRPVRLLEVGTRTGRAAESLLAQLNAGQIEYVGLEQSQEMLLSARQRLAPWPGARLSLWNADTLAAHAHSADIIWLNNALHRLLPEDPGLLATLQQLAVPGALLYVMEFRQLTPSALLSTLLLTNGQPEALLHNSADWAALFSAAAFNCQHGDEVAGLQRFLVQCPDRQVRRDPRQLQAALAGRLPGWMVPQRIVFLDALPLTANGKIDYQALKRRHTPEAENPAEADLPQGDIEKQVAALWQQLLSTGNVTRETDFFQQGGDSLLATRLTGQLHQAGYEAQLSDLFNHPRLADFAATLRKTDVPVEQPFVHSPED

## Nc1ncnc2c1ncn2[C@@H]1O[C@H](COS(=O)(=O)NC(=O)[C@@H](O)CS)[C@@H](O)[C@H]1O [4d, α-hydroxy-cysteyl-AMS]
[1]
  IC50 relative to alanyl-AMS (4a): ≤ 15 fold
  increase in HMWP2 inhibition on inclusion of β-thio group: ≈ 2 orders of magnitude
  increase in inhibitory potency by β-thiol side chain: 30–60 fold

## C[C@H](O)C(=O)NS(=O)(=O)OC[C@H]1O[C@@H](n2cnc3c(N)ncnc32)[C@H](O)[C@@H]1O [4b, lactyl-AMS]
[2]; all three strains (E. coli, B. subtilis, M. smegmatis), 100 µM extracellular concentration applied
  intracellular concentration: 28 to 53 µM

## Nc1ncnc2c1ncn2[C@@H]1O[C@H](COS(=O)(=O)NC(=O)[C@@H](N)CS)[C@@H](O)[C@H]1O [4c, cysteyl-AMS]
[1]
  increase in HMWP2 inhibition on inclusion of β-thio group: ≈ 2 orders of magnitude
  increase in inhibitory potency by β-thiol side chain: 30–60 fold

## Nc1ncnc2c1nc1n2[C@@H]2O[C@H](COS(=O)(=O)NC(=O)[C@@H](N)CCC1)[C@@H](O)[C@H]2O [5a, cyclo-alanyl-AMS]
[3]
  inhibitory activity in in vitro translation assay: inactive
Y. pestis [4]
  inhibition of yersiniabactin production: did not inhibit

## C[C@H](N)C(=O)NS(=O)(=O)OC[C@H]1O[C@@H](n2cnc3c(N)ncnc32)[C@H](O)[C@@H]1O [4a, alanyl-AMS]
[2]; E. coli, B. subtilis, M. smegmatis
  penetration of bacteria above the limits of detection: did not penetrate

## salicyl-AMS
Y. pestis [5]
  inhibition of yersiniabactin production: blocks yersiniabactin production

## Nc1ncnc2c1nc1n2[C@@H]2O[C@H](COS(=O)(=O)NC(=O)[C@@H](O)CCC1)[C@@H](O)[C@H]2O [5b, cyclo-lactyl-AMS]
[3]
  inhibitory activity in in vitro translation assay: inactive

— paper PMC5079767 (Bioorganic & medicinal chemistry letters, 2016)
